Among the data in US9062030B2, “Pyrazole azetidine derivatives as sphingosine 1-phosphate (S1P) receptor modulators” (Allergan, Inc., priority 2013, dated 2015) are EC50 values, retold here.

In the assay the target is T1, human S1P1 receptor (Homo sapiens, UniProt P21453).
T1 construct: expressed in transfected cells; membranes used
Kind of assay: GTP γ35S binding assay for S1P1 activity. The note with it: membranes of cells stably expressing the S1P1 receptor, agonist activity potency. In kind it is biochemical. On the procedure: Compounds were synthesized and tested for S1P1 activity using the GTP γ^35S binding assay. These compounds may be assessed for their ability to activate or block activation of the human S1P1 receptor in cells stably expressing the S1P1 receptor.
GTP γ^35S binding was measured in the medium containing (mM) HEPES 25, pH 7.4, MgCl2 10, NaCl 100, dithiothreitol 0.5, digitonin 0.003%, 0.2 nM GTP γ^35S, and 5 μg membrane protein in a volume of 150 μl. Test compounds were included in the concentration range from 0.08 to 5,000 nM unless indicated otherwise. Membranes were incubated with 100 μM 5′-adenylylimidodiphosphate for 30 min, and subsequently with 10 μM GDP for 10 min on ice. Drug solutions and membrane were mixed, and then reactions were initiated by adding GTP γ^35S and continued for 30 min at 25° C. Reaction mixtures were filtered over Whatman GF/B filters under vacuum, and washed three times with 3 mL of ice-cold buffer (HEPES 25, pH 7.4, MgCl2 10 and NaCl 100). Filters were dried and mixed with scintillant, and counted for ^35S activity using a β-counter. Agonist-induced GTP γ^35S binding was obtained by subtracting that in the absence of agonist. Binding data were analyzed using a non-linear regression method. In case of antagonist assay, the reaction mixture contained 10 nM S1P in the presence of test antagonist at concentrations ranging from 0.08 to 5000 nM.
For orientation: Binding of GTPγS marks nucleotide exchange on a G protein.

T1 sequence (P21453 whole entry): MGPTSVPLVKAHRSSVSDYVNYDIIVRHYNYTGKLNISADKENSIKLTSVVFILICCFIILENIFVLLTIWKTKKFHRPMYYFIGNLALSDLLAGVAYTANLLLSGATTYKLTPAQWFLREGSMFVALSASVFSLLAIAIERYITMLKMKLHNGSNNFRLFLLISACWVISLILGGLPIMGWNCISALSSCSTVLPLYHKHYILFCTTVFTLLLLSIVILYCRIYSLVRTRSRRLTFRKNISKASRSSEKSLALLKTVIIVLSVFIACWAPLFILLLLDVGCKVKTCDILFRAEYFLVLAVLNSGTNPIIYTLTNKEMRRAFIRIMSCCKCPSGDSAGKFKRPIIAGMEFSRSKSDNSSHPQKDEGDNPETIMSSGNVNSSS

Turning to `Cc1nn(C(=O)CCc2ccc(CN3CC(C(=O)O)C3)cc2)c2c1C1C(C2)C1(C)C` (stereo not shown) [Compound 1, 1-{4-[3-oxo-3-(3,4,4-trimethyl-3b,4,4a,5-tetrahydro-1H-cyclopropa [3,4]cyclopenta[1,2-c]pyrazol-1-yl)propyl]benzyl}azetidine-3-carboxylic acid], a half-maximal effect (EC50) was put at 450 nM. This lies in the sub-micromolar range.
